From patent publication US8735414B2 (priority 2009, dated 2014)

System: bicistronic HCV replicon (replicon RNA, GenBank Accession No. AJ242654)
Assay: HCV Replicon Assay
Format: cell-based
Details: Hepatitis C virus, 72 h, read-out: Replicon IC50

For C[C@H](NS(=O)(=O)c1ccc(-c2c(C#N)c3cc(F)c(OC(F)F)cc3n2-c2ncccn2)nc1)C(F)(F)F [compound 682, 6-[3-cyano-6-(difluoromethoxy)-5-fluoro-1-(pyrimidin-2-yl)-1H-indol-2-yl]-N-[(2S)-1,1,1-trifluoropropan-2-yl]pyridine-3-sulfonamide], the IC50 was < 500 nM.
With Cc1cc2c(cc1F)cc(-c1ccc(S(=O)(=O)N[C@@H](C)C(F)(F)F)cn1)n2-c1ccc(C#N)o1 [compound 1060, 6-[1-(5-cyanofuran-2-yl)-5-fluoro-6-methyl-1H-indol-2-yl]-N-[(2S)-1,1,1-trifluoropropan-2-yl]pyridine-3-sulfonamide] the IC50 was 2000 to 5000 nM.
CCC(NS(=O)(=O)c1ccc(-c2c(C#N)c3cc(F)c(OC(F)F)cc3n2C2CCC2)nc1)C(F)(F)F (centres unmarked) [compound 790, 6-[3-cyano-1-cyclobutyl-6-(difluoromethoxy)-5-fluoro-1H-indol-2-yl]-N-(1,1,1-trifluorobutan-2-yl)pyridine-3-sulfonamide] was tested, and the IC50 was < 500 nM.
With N#Cc1c(-c2ncc(S(=O)(=O)NC(CF)CF)cn2)n(C2CCC2)c2ccc(C(F)F)cc12 [compound 379, 2-[3-cyano-1-cyclobutyl-5-(difluoromethyl)-1H-indol-2-yl]-N-(1,3-difluoropropan-2-yl)pyrimidine-5-sulfonamide] the IC50 was < 500 nM.
Work on COc1ccnc(-n2c(-c3ccc(S(=O)(=O)N[C@@H](C)C(F)(F)F)cn3)c(C#N)c3cc(F)c(C)cc32)n1 [compound 866, 6-[3-cyano-5-fluoro-1-(4-methoxypyrimidin-2-yl)-6-methyl-1H-indol-2-yl]-N-[(2S)-1,1,1-trifluoropropan-2-yl]pyridine-3-sulfonamide] yielded an IC50 of 500 to 2000 nM.
In the case of C[C@H](NS(=O)(=O)c1ccc(-c2c(C(N)=O)c3cc(F)c(C4CC4)cc3n2C2CCCC2)nc1)C(F)(F)F [compound 838, 1-cyclopentyl-6-cyclopropyl-5-fluoro-2-(5-{[(2S)-1,1,1-trifluoropropan-2-yl]sulfamoyl}pyridin-2-yl)-1H-indole-3-carboxamide], the IC50 is reported as < 500 nM.
N#Cc1c(-c2ncc(S(=O)(=O)NC(CF)CF)cn2)n(C2CCCC2)c2ccc(Cl)cc12 [compound 188, 2-(5-chloro-3-cyano-1-cyclopentyl-1H-indol-2-yl)-N-(1,3-difluoropropan-2-yl)pyrimidine-5-sulfonamide] was tested, and the IC50 was < 500 nM.
For CCc1cc2c(cc1F)c(C#N)c(-c1ccc(S(=O)(=O)N[C@@H](C)C(F)(F)F)cn1)n2C1CC1 [compound 910, 6-(3-cyano-1-cyclopropyl-6-ethyl-5-fluoro-1H-indol-2-yl)-N-[(2S)-1,1,1-trifluoropropan-2-yl]pyridine-3-sulfonamide], the IC50 was < 500 nM.
N#Cc1c(-c2ccc(S(=O)(=O)NC3(C(F)(F)F)CC3)cn2)n(-c2ccccn2)c2cc(OC(F)F)ccc12 [compound 623, 6-[3-cyano-6-(difluoromethoxy)-1-(pyridin-2-yl)-1H-indol-2-yl]-N-[1-(trifluoromethyl)cyclopropyl]pyridine-3-sulfonamide] showed an IC50 of 500 to 2000 nM.
In the case of CCc1cc2c(cc1F)c(C#N)c(-c1ccc(S(=O)(=O)N[C@@H](C)C(F)(F)F)cn1)n2-c1ncccn1 [compound 704, 6-[3-cyano-6-ethyl-5-fluoro-1-(pyrimidin-2-yl)-1H-indol-2-yl]-N-[(2S)-1,1,1-trifluoropropan-2-yl]pyridine-3-sulfonamide], the IC50 is reported as < 500 nM.
For CCc1cc2c(cc1F)c(C(=O)O)c(-c1cnc(NS(=O)(=O)C(C)(C)C)nc1)n2C1CCCCC1 [compound 1029, 2-{2-[(tert-butylsulfonyl)amino]pyrimidin-5-yl}-1-cyclohexyl-6-ethyl-5-fluoro-1H-indole-3-carboxylic acid], the IC50 was 2000 to 5000 nM.
For N#Cc1c(-c2ccc(S(=O)(=O)NC(CF)CF)cn2)n(C2CCCC2)c2ccc(Cl)cc12 [compound 72, 6-(5-chloro-3-cyano-1-cyclopentyl-1H-indol-2-yl)-N-(1,3-difluoropropan-2-yl)pyridine-3-sulfonamide], the IC50 was < 500 nM.
N#Cc1c(-c2ccc(S(=O)(=O)NC(CF)CF)cn2)n(C2CCC2)c2cc(C=C(F)F)ccc12 [compound 103, 6-[3-cyano-1-cyclobutyl-6-(2,2-difluoroethenyl)-1H-indol-2-yl]-N-(1,3-difluoropropan-2-yl)pyridine-3-sulfonamide] was tested, and the IC50 was < 500 nM.
For CC(C)n1c(-c2ncc(S(=O)(=O)NC(CF)CF)cn2)c(C#N)c2cc(Cl)ccc21 [compound 187, 2-[5-chloro-3-cyano-1-(propan-2-yl)-1H-indol-2-yl]-N-(1,3-difluoropropan-2-yl)pyrimidine-5-sulfonamide], the IC50 was < 500 nM.
In the case of CCc1cc2c(cc1F)c(C#N)c(-c1ccc(S(=O)(=O)N[C@@H](C)C(F)(F)F)cn1)n2-c1ncc(F)cn1 [compound 946, 6-[3-cyano-6-ethyl-5-fluoro-1-(5-fluoropyrimidin-2-yl)-1H-indol-2-yl]-N-[(2S)-1,1,1-trifluoropropan-2-yl]pyridine-3-sulfonamide], the IC50 is reported as < 500 nM.
In the case of C[C@H](NS(=O)(=O)c1ccc(-c2c(C#N)c3ccc(CC(F)F)cc3n2CC2CC2)nc1)C1CC1 [compound 617, 6-[3-cyano-1-(cyclopropylmethyl)-6-(2,2-difluoroethyl)-1H-indol-2-yl]-N-[(1S)-1-cyclopropylethyl]pyridine-3-sulfonamide], the IC50 is reported as < 500 nM.
For Cc1cc2c(cc1F)cc(-c1ccc(S(=O)(=O)N[C@@H](C)C(F)(F)F)cn1)n2-c1ccoc1 [compound 988, 6-[5-fluoro-1-(furan-3-yl)-6-methyl-1H-indol-2-yl]-N-[(2S)-1,1,1-trifluoropropan-2-yl]pyridine-3-sulfonamide], the IC50 was < 500 nM.
In the case of CC(C)NS(=O)(=O)c1cnc(-c2c(C#N)c3ccc(Cl)cc3n2C2CCCC2)nc1 [compound 189, 2-(6-chloro-3-cyano-1-cyclopentyl-1H-indol-2-yl)-N-(propan-2-yl)pyrimidine-5-sulfonamide], the IC50 is reported as < 500 nM.
In the case of CCc1cc2c(cc1F)c(C(N)=O)c(-c1ccc(S(=O)(=O)NC(C)(C)C)cn1)n2-c1ccccn1 [compound 883, 2-(5-(N-tert-butylsulfamoyl)pyridin-2-yl)-6-ethyl-5-fluoro-1-(pyridin-2-yl)-1H-indole-3-carboxamide], the IC50 is reported as < 500 nM.
In the case of CCc1cc2c(cc1F)c(C#N)c(-c1ccc(S(=O)(=O)N[C@H](C)C(F)(F)F)cn1)n2-c1ncccn1 [compound 878, 6-[3-cyano-6-ethyl-5-fluoro-1-(pyrimidin-2-yl)-1H-indol-2-yl]-N-[(2R)-1,1,1-trifluoropropan-2-yl]pyridine-3-sulfonamide], the IC50 is reported as < 500 nM.
With COC(=O)c1cnc(-n2c(-c3ccc(S(=O)(=O)N[C@@H](C)C(F)(F)F)cn3)c(C#N)c3cc(F)c(C)cc32)s1 [compound 985, methyl 2-[3-cyano-5-fluoro-6-methyl-2-(5-{[(2S)-1,1,1-trifluoropropan-2-yl]sulfamoyl}pyridin-2-yl)-1H-indol-1-yl]-1,3-thiazole-5-carboxylate] the IC50 was < 500 nM.
With Cc1cc2c(cc1F)c(C#N)c(-c1ccc(S(=O)(=O)N[C@H](C)C(F)(F)F)cn1)n2-c1ncccn1 [compound 695, 6-[3-cyano-5-fluoro-6-methyl-1-(pyrimidin-2-yl)-1H-indol-2-yl]-N-[(2R)-1,1,1-trifluoropropan-2-yl]pyridine-3-sulfonamide] the IC50 was < 500 nM.
For Cc1ccc2c(C#N)c(-c3ncc(S(=O)(=O)N[C@@H](C)C4CC4)cn3)n(C3CCC3)c2c1 [compound 202, 2-(3-cyano-1-cyclobutyl-6-methyl-1H-indol-2-yl)-N-[(1S)-1-cyclopropylethyl]pyrimidine-5-sulfonamide], the IC50 was < 500 nM.
